ChEMBL document CHEMBL5356970, “Syntheses of the ω-pyridinium-containing very-long-chain ceramides PyrCer(24:1(15Z)) and PyrCer(24:0) and their anticancer activity” (Bioorg Med Chem Lett, 2024)

Tested on: HepG2
Assay: Anticancer activity against human HepG2 cells assessed as reduction in cell survival
Assay type: functional, cell-based

SMILES	IC50 [µM]
CCCCCCCCCCCCC/C=C/[C@@H](O)[C@H](CO)NC(=O)CCCCCCCCCCCCC/C=C\CCCCCCCC[n+]1ccccc1	1
CCCCCCCCCCCCC/C=C/[C@@H](O)[C@H](CO)NC(=O)CCCCCCCCCCCCCCCCCCCCCCC	189
CCCCCCCCCCCCC/C=C/[C@@H](O)[C@H](CO)NC(=O)CCCCCCCCCCCCCCCCCCCCCCC[n+]1ccccc1	9.9
CCCCCCCC/C=C\CCCCCCCCCCCCCC(=O)N[C@@H](CO)[C@H](O)/C=C/CCCCCCCCCCCCC	> 200
